Patent US6916820B1, “Neurotrophic substituted pyrimidines” (Krenitsky Pharmaceuticals, Inc., priority 1999, dated 2005)

Legend:
[1] = system: choline acetyltransferase (ChAT) activity in PC12 cells; experiment: Choline acetyltransferase (ChAT) assay in NGF-treated PC12 cells (screen for NGF-like activity); assay type: cell-based, rat; conditions: 3 days incubation with test compound, compared with NGF alone
Protocol: Cultured PC12 cells (rat adrenal pheochromocytoma from ATCC) have receptors for NGF. Responses include promotion of neurite outgrowth and elevation of choline acetyltransferase (ChAT) (L. A. Green and A. S. Tischler, Cell Neurobiol., 3, 373 (1982)).
The following assay is modified from that described in H L White and P W Scates, Neurochem. Res., 16, 63 (1991). PC12 cells were cultured at 37° C. in RPMI supplemented with HEPES buffer, pH 7.5 (to 10 mM), fetal bovine serum, horse serum, glutamine, penicillin, streptomycin and non-essential amino acids. Cultures were split 1:3 every 3 to 4 days. Exponentially dividing cells were plated into fresh medium on collagen-coated 12-well plastic dishes (10^5 cells/well). After allowing one day for cell attachment, the medium was replaced with low serum medium, with or without test compounds with each condition in triplicate. The medium may contain up to 0.2% ethanol, which was used as a solvent for most compounds tested. Cells were examined for morphological changes using an Olympus IMT-2 inverted research microscope. After 3 days incubation with test compounds, medium was removed and replaced with 0.2 ml of lysis and ChAT assay mixture. The plates were incubated at 37° C. for 2 hours and then placed into a freezer at −20° C. […]
The assay mixture contained 100 mM phosphate, pH 7.4, 0.1% NP-40, 150 mM NaCl, 1.5 mM choline, 10 mM EDTA, 0.1 mM eserine, 0.1 mM acetyl-coenzyme A and about 0.5 uCi (40-70 Ci/mol) [14C]acetyl-coenzyme A in each ml of mixture. […] The vials were centrifuged at 3000 rpm (max.=16 cm) for 15 minutes and then counted in a Beckman LS6500 scintillation counter. […]
The following data were obtained for representative compounds of the present invention which (1) increased the activity of choline acetyltransferase ChAT), (2) enhanced NGF-stimulated neurite outgrowth and/or (3) potentiated or appeared additive with the action of NGF itself. The concentration at which the test compound doubled the ChAT activity over the activity with NGF alone (no test compound) was recorded as the EC2x value: […]

Row | Structure (SMILES) | EC2x (concentration at which the test compound doubled the ChAT activity over the activity with NGF alone) [1] [µM] | melting point [°C]
1 | Cl.Nc1ncc(Oc2ccc(Cl)cc2)c(NC2CCC(=O)CC2)n1 [Example 10, 2-amino-5-(4-chlorophenoxy)-4-(4-oxocyclohexylamino)pyrimidine hydrochloride] | 0.7 | –
2 | Cl.Nc1ncc(Oc2ccc(Cl)cc2)c(N[C@H]2CC[C@H](O)CC2)n1 | – | 155 to 156
3 | Cl.Nc1ncc(Oc2ccc(Cl)cc2Cl)c(N[C@H]2CC[C@H](O)CC2)n1 [Example 5, 2-amino-5-(2,4-dichlorophenoxy)-4-(trans-4-hydroxycyclohexylamino)pyrimidine hydrochloride] | 1.2 | 138 to 145
4 | Nc1ncc(Oc2ccc(Cl)cc2)c(N[C@H]2CC[C@H](O)CC2)n1 [Example 3, 2-amino-5-(4-chlorophenoxy)-4-(trans-4-hydroxycyclohexylamino)pyrimidine] | 0.4 | 154 to 155
